Measured values: PubChem BioAssay (NCI)
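Grown in 96-well plates, cells were treated for 48 hours with each compound at five concentrations. Insufficient inhibition: endpoint recorded as highest concentration tested. GI50: concentration for 50% inhibition of growth. TGI: total growth inhibition.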

What was measured:
Test in all cases: growth of human tumour cells (NCI), 48 h
NCI-H522 lung = test system: NCI-H522 lung
EKVX NSCLC = test system: EKVX NSCLC
SK-MEL-5 melanoma = test system: SK-MEL-5 melanoma
A549 NSCLC = test system: A549 NSCLC
COLO 205 colon = test system: COLO 205 colon
KM20L2 colon = test system: KM20L2 colon
IGROV1 ovarian = test system: IGROV1 ovarian
SK-MEL-28 melanoma = test system: SK-MEL-28 melanoma
HT29 colon = test system: HT29 colon
HCC-2998 colon = test system: HCC-2998 colon
M14 melanoma = test system: M14 melanoma
MOLT-4 leukemia = test system: MOLT-4 leukemia
UACC-257 melanoma = test system: UACC-257 melanoma
OVCAR-4 ovarian = test system: OVCAR-4 ovarian
RXF 393 renal = test system: RXF 393 renal
TK-10 renal = test system: TK-10 renal
HCT-15 colon = test system: HCT-15 colon
KM12 colon = test system: KM12 colon
LOX IMVI melanoma = test system: LOX IMVI melanoma
SF-268 CNS = test system: SF-268 CNS
SW-620 colon = test system: SW-620 colon
CAKI-1 renal = test system: CAKI-1 renal
HOP-62 NSCLC = test system: HOP-62 NSCLC
OVCAR-8 ovarian = test system: OVCAR-8 ovarian
HOP-92 NSCLC = test system: HOP-92 NSCLC
NCI-H23 lung = test system: NCI-H23 lung
ACHN renal = test system: ACHN renal
SNB-19 CNS = test system: SNB-19 CNS
SF-539 CNS = test system: SF-539 CNS
786-0 renal = test system: 786-0 renal
SN12C renal = test system: SN12C renal
MALME-3M melanoma = test system: MALME-3M melanoma
UO-31 renal = test system: UO-31 renal
A498 renal = test system: A498 renal
OVCAR-5 ovarian = test system: OVCAR-5 ovarian
SNB-75 CNS = test system: SNB-75 CNS
NCI-H460 lung = test system: NCI-H460 lung
RPMI-8226 leukemia = test system: RPMI-8226 leukemia
SK-OV-3 ovarian = test system: SK-OV-3 ovarian
NCI-H226 lung = test system: NCI-H226 lung
HL-60(TB) leukemia = test system: HL-60(TB) leukemia
UACC-62 melanoma = test system: UACC-62 melanoma
OVCAR-3 ovarian = test system: OVCAR-3 ovarian
HCT-116 colon = test system: HCT-116 colon
U251 CNS = test system: U251 CNS
SF-295 CNS = test system: SF-295 CNS

Work on `CCC[CH2][Sn]([CH2]CCC)([CH2]CCC)[O]C(=O)C(OC)c1ccccc1` (stereo unspecified) yielded a GI50 (NCI-H522 lung) of 88.5 nM, a TGI (NCI-H522 lung) of 212 nM and a GI50 (EKVX NSCLC) of 27.7 nM. It also gave a TGI (EKVX NSCLC) of 228 nM, a GI50 (SK-MEL-5 melanoma) of 133 nM and a TGI (SK-MEL-5 melanoma) of 262 nM. The GI50 (A549 NSCLC) was 117 nM, the TGI (A549 NSCLC) was 265 nM and the GI50 (COLO 205 colon) was 134 nM. The TGI (COLO 205 colon) was 264 nM, the GI50 (KM20L2 colon) was 49.1 nM and the TGI (KM20L2 colon) was 171 nM. For the same molecule, the GI50 (IGROV1 ovarian) was 130 nM, the TGI (IGROV1 ovarian) was 295 nM and the GI50 (SK-MEL-28 melanoma) was 137 nM. It also gave a TGI (SK-MEL-28 melanoma) of 270 nM, a GI50 (HT29 colon) of 50.7 nM and a TGI (HT29 colon) of 168 nM. It also gave a GI50 (HCC-2998 colon) of 38.1 nM, a TGI (HCC-2998 colon) of 144 nM and a GI50 (M14 melanoma) of 133 nM. It also gave a TGI (M14 melanoma) of 263 nM, a TGI (MOLT-4 leukemia) of 835 nM and a GI50 (UACC-257 melanoma) of 96.9 nM. The TGI (UACC-257 melanoma) was 217 nM, the GI50 (OVCAR-4 ovarian) was 60.4 nM and the TGI (OVCAR-4 ovarian) was 189 nM. The GI50 (RXF 393 renal) was 56.1 nM, the TGI (RXF 393 renal) was 194 nM and the GI50 (TK-10 renal) was 263 nM. It also gave a TGI (TK-10 renal) of 984 nM, a GI50 (HCT-15 colon) of 86.4 nM and a TGI (HCT-15 colon) of 211 nM. For the same molecule, the GI50 (KM12 colon) was 52 nM, the TGI (KM12 colon) was 178 nM and the GI50 (LOX IMVI melanoma) was 30.9 nM. It also gave a TGI (LOX IMVI melanoma) of 130 nM, a GI50 (SF-268 CNS) of 112 nM and a TGI (SF-268 CNS) of 327 nM. It also gave a GI50 (SW-620 colon) of 112 nM, a TGI (SW-620 colon) of 236 nM and a GI50 (CAKI-1 renal) of 115 nM. It also gave a TGI (CAKI-1 renal) of 238 nM, a GI50 (HOP-62 NSCLC) of 135 nM and a TGI (HOP-62 NSCLC) of 270 nM. For the same molecule, the GI50 (OVCAR-8 ovarian) was 141 nM, the TGI (OVCAR-8 ovarian) was 272 nM and the GI50 (HOP-92 NSCLC) was 27.4 nM. The TGI (HOP-92 NSCLC) was 175 nM, the GI50 (NCI-H23 lung) was 49.9 nM and the TGI (NCI-H23 lung) was 179 nM. The GI50 (ACHN renal) was 129 nM, the TGI (ACHN renal) was 257 nM and the GI50 (SNB-19 CNS) was 156 nM. It also gave a TGI (SNB-19 CNS) of 301 nM, a GI50 (SF-539 CNS) of 134 nM and a TGI (SF-539 CNS) of 268 nM. For the same molecule, the GI50 (786-0 renal) was 142 nM, the TGI (786-0 renal) was 288 nM and the GI50 (SN12C renal) was 117 nM. For the same molecule, the TGI (SN12C renal) was 240 nM, the GI50 (MALME-3M melanoma) was 112 nM and the TGI (MALME-3M melanoma) was 234 nM. The GI50 (UO-31 renal) was 113 nM, the TGI (UO-31 renal) was 234 nM and the GI50 (A498 renal) was 123 nM. The TGI (A498 renal) was 263 nM, the GI50 (OVCAR-5 ovarian) was 37.1 nM and the TGI (OVCAR-5 ovarian) was 183 nM. It also gave a GI50 (SNB-75 CNS) of 82.4 nM, a TGI (SNB-75 CNS) of 513 nM and a GI50 (NCI-H460 lung) of 83.5 nM. It also gave a TGI (NCI-H460 lung) of 217 nM, a GI50 (RPMI-8226 leukemia) of 20.6 nM and a TGI (RPMI-8226 leukemia) of 306 nM. For the same molecule, the GI50 (SK-OV-3 ovarian) was 122 nM, the TGI (SK-OV-3 ovarian) was 246 nM and the GI50 (NCI-H226 lung) was 104 nM. For the same molecule, the TGI (NCI-H226 lung) was 252 nM, the GI50 (HL-60(TB) leukemia) was 41.8 nM and the TGI (HL-60(TB) leukemia) was 256 nM. The GI50 (UACC-62 melanoma) was 91.3 nM, the TGI (UACC-62 melanoma) was 215 nM and the GI50 (OVCAR-3 ovarian) was 84.5 nM. It also gave a TGI (OVCAR-3 ovarian) of 213 nM, a GI50 (HCT-116 colon) of 50.8 nM and a TGI (HCT-116 colon) of 182 nM. For the same molecule, the GI50 (U251 CNS) was 106 nM, the TGI (U251 CNS) was 225 nM and the GI50 (SF-295 CNS) was 130 nM. The TGI (SF-295 CNS) was 259 nM.
